pIC50: −log10 of the molar value.
Tested on: Plasmodium berghei
Assay: Luciferase/luciferin-expressing antifolate-resistant parasites were used to infect a culture of HepG2 cells that were pre-incubated with compounds. Infected hepatocytes emit light due to the luciferase reaction. Assay results are presented as the percent inhibition of light emission compared to control. […]
Assay type: functional
Settings: sporozoite; for IC90: read-out: LUCIFERASE INFECTION ASSAY - IC90
[1] = read-out: LUCIFERASE INFECTION ASSAY - IC50

SMILES | IC90 | pIC50 [1] | further results
COc1cc(Nc2nccn3c(-c4ccc(OC(F)(F)F)cc4)cnc23)cc(OC)c1OC | 4.53 µM |  | pIC50 (HEPG2TOX_HILL_SLOPE 16.8, HEPG2TOX_R_SQUARED 0.492, PBLUC_HILL_SLOPE 4.79, PBLUC_R_SQUARED 0.767, read-out: LUCIFERASE INFECTION ASSAY - IC50): 5.54
O=C(NC1CC1)c1ccc(-c2cnc3c(NCc4ccc5c(c4)OCO5)nccn23)cc1 | 2.99 µM |  | pIC50 (HEPG2TOX_HILL_SLOPE 2.15, HEPG2TOX_R_SQUARED 0.624, PBLUC_HILL_SLOPE 12.5, PBLUC_R_SQUARED 0.564, read-out: LUCIFERASE INFECTION ASSAY - IC50): 5.60
CCCN1CCCC(NC(=S)Nc2ccc(Br)cc2C)C1 (centres undefined) | > 8.91 µM | < 5.05 | 
N#C/C(=N\Nc1ccc(F)cc1)S(=O)(=O)c1ccc(Cl)cc1 | 4.33 µM |  | pIC50 (FFLUC_HILL_SLOPE 1.6, FFLUC_R_SQUARED 0.662, HEPG2TOX_HILL_SLOPE 1.9, HEPG2TOX_R_SQUARED 0.994, PBLUC_HILL_SLOPE 9.61, PBLUC_R_SQUARED 0.336, read-out: LUCIFERASE INFECTION ASSAY - IC50): 5.46
CN(c1ccccc1)S(=O)(=O)c1ccc(C(=O)Nc2nc(-c3cc(Cl)sc3Cl)cs2)cc1 | 8.48 µM |  | pIC50 (FFLUC_HILL_SLOPE 19.7, FFLUC_R_SQUARED 0.521, HEPG2TOX_HILL_SLOPE 3.83, HEPG2TOX_R_SQUARED 0.989, PBLUC_HILL_SLOPE 4.8, PBLUC_R_SQUARED 0.68, read-out: LUCIFERASE INFECTION ASSAY - IC50): 5.27
O=C(CCN1CCOCC1)Nc1cc(C(F)(F)F)ccc1Cl | > 9.8 µM | < 5.01 | 
CC(=O)Nc1cc(-c2ccc(C(=O)NC3CC3)cc2)cn2c(-c3ccc(F)c(Cl)c3)cnc12 | > 7.13 µM | < 5.15 | 
OCc1ccccc1-c1cn2c(-c3ccc(Cl)cc3)cnc2cn1 | 3.81 µM |  | pIC50 (PBLUC_HILL_SLOPE 13.7, PBLUC_R_SQUARED 0.696, read-out: LUCIFERASE INFECTION ASSAY - IC50): 5.49
CCOC(=O)c1ccc(NC(=S)N/N=C/c2ccccc2O)cc1 | 5.71 µM |  | pIC50 (HEPG2TOX_HILL_SLOPE 1.84, HEPG2TOX_R_SQUARED 0.879, PBLUC_HILL_SLOPE 113, PBLUC_R_SQUARED 0.459, read-out: LUCIFERASE INFECTION ASSAY - IC50): 5.25
COc1ccccc1CNc1nc(NCc2ccccc2SC)c2sccc2n1 | > 7.81 µM | < 5.11 | 
Cc1nn(-c2ccccc2)c2c1C(c1cccnc1)C(c1nc3ccccc3s1)C(c1ccccc1)=N2 (centres undefined) | > 10 µM |  | pIC50 (FFLUC_HILL_SLOPE 3.11, FFLUC_R_SQUARED 0.548, read-out: LUCIFERASE INFECTION ASSAY - IC50): < 5.00
COc1ccccc1N(C)S(=O)(=O)c1ccc(C)c(C(=O)Nc2nc3ccccc3s2)c1 | 8.14 µM |  | pIC50 (PBLUC_HILL_SLOPE 17.5, PBLUC_R_SQUARED 0.446, read-out: LUCIFERASE INFECTION ASSAY - IC50): 5.14
CCCCC(CC)C[n+]1c(C)cc(C=C2Sc3ccccc3N2CC)cc1C (centres undefined) | 0.111 µM |  | pIC50 (HEPG2TOX_HILL_SLOPE 1.26, HEPG2TOX_R_SQUARED 0.976, PBLUC_HILL_SLOPE 1.65, PBLUC_R_SQUARED 0.944, read-out: LUCIFERASE INFECTION ASSAY - IC50): 7.53
CC(=O)N1CCc2cc(NC(=O)CNc3ccc(C)cc3C)ccc21 | > 10 µM | < 5.00 | 
Cc1ccc(Cn2ncc3c(C(=O)Nc4ccc(C)c(F)c4)cc(C)nc32)cc1 | > 10 µM | < 5.00 | 
CCCCc1ccc(NC(=O)c2cc(OC)c(OC)c(OC)c2)cc1 | > 9.61 µM | < 5.02 | 

SMILES | IC90 | pIC50 [1] | further results
COc1cccc(C(c2c(-c3ccccc3)n(O)c3ccccc23)N2CCOCC2)c1 (centres undefined) | > 10 µM |  | pIC50 (FFLUC_HILL_SLOPE 161, FFLUC_R_SQUARED 0.573, read-out: LUCIFERASE INFECTION ASSAY - IC50): < 5.00
CN(C)c1ccc(Nc2cc(-c3cccc4ccccc34)ncn2)cc1 | 6.64 µM |  | pIC50 (HEPG2TOX_HILL_SLOPE 1.74, HEPG2TOX_R_SQUARED 0.777, PBLUC_HILL_SLOPE 1.75, PBLUC_R_SQUARED 0.668, read-out: LUCIFERASE INFECTION ASSAY - IC50): 5.72
CC(=O)Nc1ccc2c(COC(=O)C(CC(C)C)NC(=O)c3ccc(Cl)cc3)cc(=O)oc2c1 (centres undefined) | > 10 µM |  | pIC50 (FFLUC_HILL_SLOPE 0.303, FFLUC_R_SQUARED 0.675, read-out: LUCIFERASE INFECTION ASSAY - IC50): < 5.00
COc1cc(CNC2CCCC2)c(Br)cc1OC1CCCC1 | > 8.15 µM |  | pIC50 (PBLUC_HILL_SLOPE 45, PBLUC_R_SQUARED 0.216, read-out: LUCIFERASE INFECTION ASSAY - IC50): 5.09
COc1cc(-c2cc3nc(Nc4ccc5c[nH]nc5c4)ccn3n2)cc(OC)c1OC | > 7.92 µM |  | pIC50 (PBLUC_HILL_SLOPE 11.7, PBLUC_R_SQUARED 0.319, read-out: LUCIFERASE INFECTION ASSAY - IC50): 5.14
Cc1ccc(-c2cnn3c(N4CCOCC4)cc(C)nc23)cc1 | > 10.7 µM |  | pIC50 (PBLUC_HILL_SLOPE 2.15, PBLUC_R_SQUARED 0.469, read-out: LUCIFERASE INFECTION ASSAY - IC50): 5.26
N#CC(C#N)=Cc1c(-c2ccc(Cl)cc2)[nH]c2ccccc12 | 1.39 µM |  | pIC50 (HEPG2TOX_HILL_SLOPE 0.752, HEPG2TOX_R_SQUARED 0.846, PBLUC_HILL_SLOPE 1.54, PBLUC_R_SQUARED 0.775, read-out: LUCIFERASE INFECTION ASSAY - IC50): 6.48
Cc1cc(NC(=O)c2ccc(C)c(C)c2)n(-c2nc3ccccc3[nH]2)n1 | > 9.55 µM |  | pIC50 (PBLUC_HILL_SLOPE 14, PBLUC_R_SQUARED 0.327, read-out: LUCIFERASE INFECTION ASSAY - IC50): 5.09
CC(C)c1cc(N(c2ccc(Br)cc2)S(=O)(=O)c2ccc(Cl)cc2)cc(C(C)C)c1O | > 10 µM |  | pIC50 (FFLUC_HILL_SLOPE 3.1, FFLUC_R_SQUARED 0.697, PBLUC_HILL_SLOPE 9.64, PBLUC_R_SQUARED 0.214, read-out: LUCIFERASE INFECTION ASSAY - IC50): 5.06
Cc1ccc2[nH]c(-c3cccs3)c(CCC(=O)N(C)C3CCS(=O)(=O)C3)c2c1 (centres undefined) | 3.85 µM |  | pIC50 (PBLUC_HILL_SLOPE 12.5, PBLUC_R_SQUARED 0.681, read-out: LUCIFERASE INFECTION ASSAY - IC50): 5.49
COc1cccc(N(C(=O)c2ccc3c(c2)OCO3)c2nc(-c3ccc(Cl)cc3Cl)cs2)c1 | > 10 µM |  | pIC50 (FFLUC_HILL_SLOPE 8.73, FFLUC_R_SQUARED 0.44, PBLUC_HILL_SLOPE 14.1, PBLUC_R_SQUARED 0.181, read-out: LUCIFERASE INFECTION ASSAY - IC50): 5.06
CCOC(=O)c1cc(C#N)c(Sc2ccccn2)nc1C(F)(F)F | > 9.34 µM | < 5.03 | 
O=S(=O)(c1ccc(Cl)s1)N1CCN(c2ncnc3ccccc23)CC1 | > 10 µM |  | pIC50 (HEPG2TOX_HILL_SLOPE 2.41, HEPG2TOX_R_SQUARED 0.894, PBLUC_HILL_SLOPE 2.42, PBLUC_R_SQUARED 0.407, read-out: LUCIFERASE INFECTION ASSAY - IC50): 5.30
COc1ccccc1-c1nc(COC(=O)c2cccnc2SC)cs1 | > 10 µM | < 5.00 | 
Cc1c(S(=O)(=O)c2ccc(Cl)cc2)csc1C(=O)Nc1cc(C(F)(F)F)cc(C(F)(F)F)c1 | > 6.25 µM |  | pIC50 (FFLUC_HILL_SLOPE 11.9, FFLUC_R_SQUARED 0.653, HEPG2TOX_HILL_SLOPE 12.6, HEPG2TOX_R_SQUARED 0.751, PBLUC_HILL_SLOPE 2.69, PBLUC_R_SQUARED 0.583, read-out: LUCIFERASE INFECTION ASSAY - IC50): 5.49
COc1cc(Nc2cc3c(cn2)nc(NCc2ccccc2)n3C)cc(C(F)(F)F)c1 | > 10 µM | < 5.00 | 
